Reference: patent US20040019026A1, “Compounds useful for treating hypertriglyceridemia” (priority 2000, published 2004)

What was measured:
[1] = tested on: hypertriglyceridemic patients; experiment: Hypertriglyceridemic patients with high or low HDL, 1200 mg daily: plasma triglycerides (Example 2); assay type: in vivo, human; settings: for Triglyceride levels: 4 patients with low HDL levels
Procedure: Five hypertriglyceridemic patients had high baseline HDL levels (>50 mg/dL, 64.2±8.5, n=10, mean±S.D.) and four hypertriglyceridemic patients had low HDL levels 40.4±4.1, n=8). They were treated as before, as described in Example 1, except they received 1200 mg of 16α-fluoro-5-androsten-17-one daily. Controls were set up so that they received 1200 mg of placebo. The triglyceride concentration in the plasma were measured pretreatment and at the end of the study.
In those patients with high HDL levels, the triglycerides fell from 330±163 (n=10) to 214±56.1 (n=5). However, in 4 patients with low HDL levels (40.0±4.1), treatment with 1200 mg of 16α-fluoro-5-androsten-17-one daily for 3 to 12 weeks lowered triglyceride levels from 245±55.1 (n=8) to 139±10.6 (n=4), p<0.01.

[2] = tested on: patients with Metabolic Syndrome; experiment: Phase I/II buccal tablet study: triglyceride and HDL levels, incl. obese subset (Examples 7 and 8); assay type: in vivo, human
Procedure: The study was a phase I/II randomized, double blind, dose-ranging, placebo-controlled, evaluation of the safety, tolerance, and activity on lipid laboratory markers after transmucosal (buccal) administration of two dose levels (20 mg or 80 mg) of fluasterone (16α-fluoro-5-androsten-17-one) compared to placebo in patients with Metabolic Syndrome. Study treatment consisted of eight weeks of buccal tablet administration of fluasterone or placebo control and subsequent follow-up for two weeks.
After patient consent had been obtained, patients were screened for eligibility into the study. Following informed consent, screening and laboratory testing, patients entered a six-week dietary run-in phase during which they followed a Step II AHA diet, and discontinued all lipid-lowering agents. At 4 weeks into the dietary run-in phase, qualifying lipid and endocrine laboratory measurements were performed. After the run-in phase, patients were randomized to receive either fluasterone or placebo control. Patients received fluasterone or placebo daily for 8 weeks. Patients were followed for an additional 2 weeks for total study duration of 16 weeks. The dose levels evaluated in this study were either 20 mg or 80 mg buccal tablets of fluasterone or placebo control that were formulated to dissolve between the lower gingival surfaces of the jaw and buccal mucosa of the cheek pouch.
Fluasterone or placebo equivalent was administered as either one or four buccal tablets. Each buccal tablet contained 16-α-fluoro-5-androsten-17-one, mannitol, crospovidone, magnesium stearate, polyethylene glycol 3350, silica gel and sodium lauryl sulfate. Patients were instructed to ingest water prior to placing the buccal tablets in their mouth. The tablets were held in the mouth without disturbance for approximately 10 minutes. Patients were instructed not to chew or swallow the tablets and not drink or eat for 30 minutes after study drug administration.
The study consisted of a 6-week dietary run-in phase during which they followed a Step II AHA diet and discontinued all lipid-lowering agents. After the run-in phase, patients who qualified based on lipid and endocrine laboratory measurements at the qualifying visit (week −2) were randomized to receive fluasterone or placebo control. Patients received fluasterone or placebo control daily for 8 weeks. Patients were followed for an additional 2 weeks to collect adverse events and an additional lipid profile for total study duration of 16 weeks.
Blood samples were collected for lipid determinations at the qualifying visit (week −2), at study day 1, and at weeks 2, 4, 6, 8, and 10.
There were 8 patients treated with 80 mg fluasterone, 9 with 20 mg fluasterone, 3 patients with 80 mg placebo, and 4 patients with 20 mg placebo.
The triglyceride level in the 80 mg fluasterone group declined from baseline by 34% at week […] and by 35% at week […]. In the combined placebo group at the corresponding time points the triglyceride levels increased by 6% and 7% respectively.

human patients = experiment: 14-day multiple dose study, 1600 mg daily: plasma triglycerides and fasting plasma glucose (Example 1); assay type: in vivo
Procedure: Twelve patients were treated with 16α-fluoro-5-androstene-17-one.
Smoking and intake of xanthine-containing beverages or food (coffee, tea, cola, chocolate) and alcohol within 24 hours, before and during the stay in the clinical research facilities were not allowed.
The human patients received 1600 mg of 16α-fluoro-5-androstene-17-one daily. Controls were set up so that they received 1600 mg of placebo. The triglyceride concentration in the plasma were measured pretreatment and at the end of the study. There was a significant triglyceride-lowering effect caused by the drug in the 14-day, multiple dose, study.
In 12 patients (excluding 2 placebos) receiving 1600 mg of 16α-fluoro-5-androsten-17-one daily, 4 patients, 3 males and one person, had pretreatment triglyceride levels>200 mg/dL. In this group of 4 patients there was a highly significant reduction in triglyceride values, whereas there was no apparent effect in the 8 patients with non-elevated triglycerides. The decline in one patient was additionally quite striking. […]
In addition, the fasting plasma glucose (FPG) levels were also measured in the patients before and after treatment. In the study, 3 of the 4 patients with elevated triglycerides had pre-treatment FPG levels>6.1 mM. The American Diabetes Association (ADA) has recently classified individuals with FPG of 6.1-6.9 mM as having impaired fasting glucose (IFG). Such individuals have 40% probability of developing ADA criteria for diabetes within 5 years.

[3] = tested on: male BKS.Cg-m+/+Leprdb mice; experiment: Mortality during treatment of diabetic mice (Example 9); assay type: in vivo
[4] = 20 mg buccal daily, Week 2, 4, 6, & 8
[5] = 80 mg buccal daily, Week 2, 4, 6, & 8
[6] = obese subset, 80 mg buccal daily, Week 2, 4, 6, and 8
[7] = obese subset, 80 mg buccal daily, Week 8
[8] = obese subset, 80 mg buccal, Baseline (−2, 0)

Question: Which Triglyceride levels ([1]; after 1200 mg daily for 3 to 12 weeks, p<0.01) does the source give for `C[C@]12CCCCC1=CC[C@@H]1[C@@H]2CC[C@]2(C)C(=O)[C@H](F)C[C@@H]12` [fluasterone, 16α-fluoro-5-androsten-17-one] here?
Answer: 139±10.6

Question: And the Triglyceride levels ([1]; pretreatment)?
Answer: 245±55.1

Question: And the Triglycerides ([1]; patients with high HDL levels (>50 mg/dL), pretreatment)?
Answer: 330±163

Question: And the Triglycerides ([1]; patients with high HDL levels, after 1200 mg daily)?
Answer: 214±56.1

Question: And the HDL [2, 4]?
Answer: 32.6 ± 6.4 (36) mg/dL

Question: And the Triglycerides [2, 4]?
Answer: 523 ± 311 (36) mg/dL

Question: What about the HDL ([2]; 20 mg buccal daily, Week 8) of the same compound?
Answer: 33.3 ± 6.5 (9) mg/dL

Question: What about the Triglycerides ([2]; 20 mg buccal daily, Week 8) of the same compound?
Answer: 538 ± 285 (9) mg/dL

Question: What about the HDL ([2]; 20 mg buccal, Baseline (−2, 0)) of the same compound?
Answer: 31.6 ± 6.2 (18) mg/dL

Question: And the Triglycerides ([2]; 20 mg buccal, Baseline (−2, 0))?
Answer: 507 ± 192 (18) mg/dL

Question: And the HDL [2, 5]?
Answer: 41.1 ± 8.1 (32) mg/dL

Question: And the Triglycerides [2, 5]?
Answer: 342 ± 111 (32) mg/dL

Question: And the HDL ([2]; 80 mg buccal daily, Week 8)?
Answer: 41.6 ± 9.4 (8) mg/dL

Question: What about the Triglycerides ([2]; 80 mg buccal daily, Week 8) of the same compound?
Answer: 292 ± 92.4 (8) mg/dL

Question: And the “Effect on HDL level” value ([2]; 80 mg buccal dose, all patients)?
Answer: no apparent decline in HDL level

Question: And the HDL ([2]; 80 mg buccal, Baseline (−2, 0))?
Answer: 40.8 ± 8.9 (16) mg/dL

Question: And the Triglycerides ([2]; 80 mg buccal, Baseline (−2, 0))?
Answer: 455 ± 157 (16) mg/dL

Question: And the “Reduction of mean triglyceride level compared to baseline” value ([2]; 80 mg buccal, mean 8-week level)?
Answer: 36%

Question: And the “Reduction of mean triglyceride level compared to baseline” value ([2]; 80 mg buccal, mean of week 2, 4, 6, & 8)?
Answer: at least 25%

Question: What about the “Effect on HDL levels” value ([2]; obese subset, 80 mg buccal) of the same compound?
Answer: no decline in HDL levels from baseline

Question: And the HDL [2, 6]?
Answer: 40.3 ± 6.3 (20) mg/dL

Question: And the Triglycerides [2, 6]?
Answer: 313 ± 93.7 (20) mg/dL

Question: And the HDL [2, 7]?
Answer: 40.3 ± 4.6 (5) mg/dL

Question: What about the Triglycerides [2, 7] of the same compound?
Answer: 307 ± 106 (5) mg/dL

Question: And the HDL [2, 8]?
Answer: 39.2 ± 7.3 (10) mg/dL

Question: What about the Triglycerides [2, 8] of the same compound?
Answer: 472 ± 169 (10) mg/dL

Question: And the “Decline of triglyceride level from baseline” value ([2]; obese subset, 80 mg buccal, week 2, 4, 6, and 8, p=0.0368 vs combined placebo)?
Answer: 34%

Question: And the “Decline of triglyceride level from baseline” value ([2]; obese subset, 80 mg buccal, week 8)?
Answer: 35%

Question: What about the “Plasma triglyceride Conc.” value (human patients; Elevated Triglyceride Group, Female (1), pretreatment) of the same compound?
Answer: 540 ± 42 (n = 2) mg/dL

Question: And the “Plasma triglyceride Conc.” value (human patients; Elevated Triglyceride Group, Female (1), treatment 1600 mg daily, 14-day study)?
Answer: 118 ± 19 (n = 3) mg/dL

Question: And the “Plasma triglyceride Conc.” value (human patients; Elevated Triglyceride Group, Female and Male (4), pretreatment)?
Answer: 385 ± 116 (n = 8) mg/dL

Question: What about the “Plasma triglyceride Conc.” value (human patients; Elevated Triglyceride Group, Female and Male (4), treatment 1600 mg daily, 14-day study) of the same compound?
Answer: 154 ± 57 (n = 11) mg/dL

Question: And the “Plasma triglyceride Conc.” value (human patients; Elevated Triglyceride Group, Male (3), pretreatment)?
Answer: 333 ± 75 (n = 6) mg/dL

Question: What about the “Plasma triglyceride Conc.” value (human patients; Elevated Triglyceride Group, Male (3), treatment 1600 mg daily, 14-day study) of the same compound?
Answer: 168 ± 61 (n = 8) mg/dL

Question: What about the “Plasma triglyceride Conc.” value (human patients; Normal Triglyceride Group (8 patients), pretreatment) of the same compound?
Answer: 106 ± 34 (n = 16) mg/dL

Question: And the “Plasma triglyceride Conc.” value (human patients; Normal Triglyceride Group (8 patients), treatment 1600 mg daily, 14-day study)?
Answer: 128 ± 77 (n = 23) mg/dL

Question: And the “FPG levels of individuals with IFG” value (human patients; pretreatment)?
Answer: 6.28 ± 0.33 (6) mM

Question: And the “FPG levels of individuals with IFG” value (human patients; treatment 1600 mg daily, p < 0.02)?
Answer: 5.63 ± 0.45 (8) (p < 0.02) mM

Question: What about the “Mortality (mice died)” value ([3]; 5 mg/kg, i.p. group, about two weeks later) of the same compound?
Answer: 1 mouse

Question: And the “Mortality (mice died)” value ([3]; 200 mg/kg oral group, about 17 days later)?
Answer: 1 mouse
